Results as given in patent EP4467141A1, “PYRAZOLO-QUINOLINES AS SELECTIVE INHIBITORS OF GENOTOXIC STRESS-INDUCED IKK/NF- KB PATHWAYS FOR CANCER THERAPY” (Max-Delbrück-Centrum für Molekulare Medizin in der …, priority 2023, dated 2024).

Legend:
Test in all cases: Kinase panel study
Type in all cases: biochemical
Details in all cases: read-out: Percentage of inhibition; for inhibition at 1 µM: 1000nM; for inhibition at 10 µM: 10000nM
[1] = target: T1, EGFR (ErbB1) T790M C797S L858R (Homo sapiens, UniProt P00533, C797S/L858R/T790M)
T1 construct: purchased Thermo Fisher Scientific
T1 sequence (P00533 25-1210 T790M/C797S/L858R): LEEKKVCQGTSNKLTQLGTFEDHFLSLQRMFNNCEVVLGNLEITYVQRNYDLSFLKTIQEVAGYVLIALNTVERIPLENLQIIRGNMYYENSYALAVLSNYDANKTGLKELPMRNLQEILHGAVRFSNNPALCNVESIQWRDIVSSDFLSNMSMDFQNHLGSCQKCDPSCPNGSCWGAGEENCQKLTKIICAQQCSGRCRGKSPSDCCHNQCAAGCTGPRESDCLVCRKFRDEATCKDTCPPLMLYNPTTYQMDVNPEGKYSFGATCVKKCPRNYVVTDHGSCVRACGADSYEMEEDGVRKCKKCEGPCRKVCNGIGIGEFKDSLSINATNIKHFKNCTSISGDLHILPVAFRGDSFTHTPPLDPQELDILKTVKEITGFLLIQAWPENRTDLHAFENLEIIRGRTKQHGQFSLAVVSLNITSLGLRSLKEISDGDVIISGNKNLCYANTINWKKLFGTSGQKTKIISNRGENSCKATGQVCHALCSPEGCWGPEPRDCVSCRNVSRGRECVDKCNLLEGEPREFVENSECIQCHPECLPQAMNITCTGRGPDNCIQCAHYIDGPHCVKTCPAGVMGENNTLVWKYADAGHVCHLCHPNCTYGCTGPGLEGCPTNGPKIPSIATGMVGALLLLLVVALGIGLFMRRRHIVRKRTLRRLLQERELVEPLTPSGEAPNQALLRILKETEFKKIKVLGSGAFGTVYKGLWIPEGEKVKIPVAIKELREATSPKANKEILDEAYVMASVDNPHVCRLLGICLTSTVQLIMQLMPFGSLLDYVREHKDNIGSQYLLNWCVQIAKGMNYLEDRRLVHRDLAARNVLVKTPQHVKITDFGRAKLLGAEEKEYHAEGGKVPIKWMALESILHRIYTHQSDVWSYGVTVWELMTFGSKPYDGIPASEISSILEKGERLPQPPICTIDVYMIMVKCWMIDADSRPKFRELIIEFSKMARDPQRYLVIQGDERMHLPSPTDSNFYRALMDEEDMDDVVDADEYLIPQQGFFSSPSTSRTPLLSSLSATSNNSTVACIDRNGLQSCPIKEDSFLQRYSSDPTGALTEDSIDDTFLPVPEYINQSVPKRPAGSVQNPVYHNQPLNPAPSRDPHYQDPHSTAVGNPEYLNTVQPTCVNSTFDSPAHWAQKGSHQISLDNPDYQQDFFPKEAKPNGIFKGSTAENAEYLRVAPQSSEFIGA
Outline: (§1)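 Single-point inhibition data at 10 µM or 1 µM compound are shown. They were generated in ZLyte- or Adapta-format biochemical assays performed externally under standard conditions.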

MATK (HYL) = target: T2, MATK (HYL) (Homo sapiens, UniProt P42679)
T2 construct: purchased Thermo Fisher Scientific
T2 sequence (P42679 1-507): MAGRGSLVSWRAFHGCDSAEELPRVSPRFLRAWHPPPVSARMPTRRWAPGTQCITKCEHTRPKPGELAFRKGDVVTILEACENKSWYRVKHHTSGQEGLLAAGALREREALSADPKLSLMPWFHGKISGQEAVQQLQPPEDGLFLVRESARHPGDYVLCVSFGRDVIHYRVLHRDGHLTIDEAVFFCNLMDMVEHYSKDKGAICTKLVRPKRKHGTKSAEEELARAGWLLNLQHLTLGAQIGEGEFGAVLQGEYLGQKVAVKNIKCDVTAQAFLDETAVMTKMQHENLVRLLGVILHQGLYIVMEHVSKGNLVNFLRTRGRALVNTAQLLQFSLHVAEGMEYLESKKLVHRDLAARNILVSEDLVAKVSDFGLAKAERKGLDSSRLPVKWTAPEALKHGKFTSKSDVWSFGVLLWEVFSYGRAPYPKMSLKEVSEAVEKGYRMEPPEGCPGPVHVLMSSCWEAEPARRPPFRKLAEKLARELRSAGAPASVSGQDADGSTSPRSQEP
Outline: as §1

CSNK1E (CK1 epsilon) = target: T3, CSNK1E (CK1 epsilon) (Homo sapiens, UniProt P49674)
T3 construct: purchased Thermo Fisher Scientific
T3 sequence (P49674 whole entry): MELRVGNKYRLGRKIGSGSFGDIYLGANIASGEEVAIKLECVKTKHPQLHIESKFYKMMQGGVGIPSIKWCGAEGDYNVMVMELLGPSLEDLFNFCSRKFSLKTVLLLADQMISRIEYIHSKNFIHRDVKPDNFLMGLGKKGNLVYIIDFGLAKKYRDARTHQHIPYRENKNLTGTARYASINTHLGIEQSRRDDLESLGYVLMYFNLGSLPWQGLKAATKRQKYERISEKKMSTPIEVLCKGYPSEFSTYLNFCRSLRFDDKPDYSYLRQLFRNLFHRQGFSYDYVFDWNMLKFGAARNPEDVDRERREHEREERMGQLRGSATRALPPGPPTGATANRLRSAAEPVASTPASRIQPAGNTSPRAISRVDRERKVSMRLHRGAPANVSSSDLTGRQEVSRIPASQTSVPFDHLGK
Outline: as §1

CSNK1D (CK1 delta) = target: T4, CSNK1D (CK1 delta) (Homo sapiens, UniProt P48730)
T4 construct: purchased Thermo Fisher Scientific
T4 sequence (P48730 whole entry): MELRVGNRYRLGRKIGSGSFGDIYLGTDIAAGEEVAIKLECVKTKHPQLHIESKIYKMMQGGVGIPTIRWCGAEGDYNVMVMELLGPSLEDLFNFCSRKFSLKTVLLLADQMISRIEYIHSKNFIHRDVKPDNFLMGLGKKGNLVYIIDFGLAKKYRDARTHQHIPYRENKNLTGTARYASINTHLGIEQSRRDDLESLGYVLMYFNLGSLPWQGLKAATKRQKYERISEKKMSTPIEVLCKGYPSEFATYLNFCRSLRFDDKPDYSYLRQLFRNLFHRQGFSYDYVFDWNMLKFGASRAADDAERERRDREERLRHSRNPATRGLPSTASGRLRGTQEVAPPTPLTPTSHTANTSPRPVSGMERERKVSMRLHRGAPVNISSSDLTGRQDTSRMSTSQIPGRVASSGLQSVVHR
Outline: as §1

MAPK13 (p38 delta) = target: T5, MAPK13 (p38 delta) (Homo sapiens, UniProt O15264)
T5 construct: purchased Thermo Fisher Scientific
T5 sequence (O15264 1-365): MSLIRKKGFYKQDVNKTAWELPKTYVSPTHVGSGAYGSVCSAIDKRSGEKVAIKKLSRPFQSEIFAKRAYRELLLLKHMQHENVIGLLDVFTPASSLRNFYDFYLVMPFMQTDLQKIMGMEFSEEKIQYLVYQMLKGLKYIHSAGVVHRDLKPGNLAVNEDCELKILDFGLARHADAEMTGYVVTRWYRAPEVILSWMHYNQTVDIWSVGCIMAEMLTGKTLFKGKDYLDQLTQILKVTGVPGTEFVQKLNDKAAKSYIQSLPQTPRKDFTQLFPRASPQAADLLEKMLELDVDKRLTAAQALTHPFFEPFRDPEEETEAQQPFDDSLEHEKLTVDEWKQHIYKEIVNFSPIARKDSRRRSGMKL
Outline: as §1

ACVR1B (ALK4) = target: T6, ACVR1B (ALK4) (Homo sapiens, UniProt P36896)
T6 construct: purchased Thermo Fisher Scientific
T6 sequence (P36896 24-505): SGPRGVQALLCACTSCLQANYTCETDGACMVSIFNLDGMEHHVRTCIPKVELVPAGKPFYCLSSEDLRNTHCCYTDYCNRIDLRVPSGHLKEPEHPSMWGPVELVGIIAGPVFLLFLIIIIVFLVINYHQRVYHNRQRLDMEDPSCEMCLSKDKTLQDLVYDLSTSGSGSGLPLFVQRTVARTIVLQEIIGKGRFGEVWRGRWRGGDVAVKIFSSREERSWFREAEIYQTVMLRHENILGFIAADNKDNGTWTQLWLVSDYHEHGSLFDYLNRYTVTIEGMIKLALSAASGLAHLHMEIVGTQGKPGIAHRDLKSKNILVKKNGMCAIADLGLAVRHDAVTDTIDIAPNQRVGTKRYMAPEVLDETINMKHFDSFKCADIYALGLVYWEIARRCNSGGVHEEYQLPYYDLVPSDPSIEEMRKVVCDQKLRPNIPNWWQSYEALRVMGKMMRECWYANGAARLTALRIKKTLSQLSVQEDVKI
Outline: as §1

FYN = target: T7, FYN (Homo sapiens, UniProt P06241)
T7 construct: purchased Thermo Fisher Scientific
Outline: as §1

EGFR (ErbB1) C797S = target: T8, EGFR (ErbB1) C797S (Homo sapiens, UniProt P00533, C797S)
T8 construct: purchased Thermo Fisher Scientific
T8 sequence (P00533 25-1210 C797S): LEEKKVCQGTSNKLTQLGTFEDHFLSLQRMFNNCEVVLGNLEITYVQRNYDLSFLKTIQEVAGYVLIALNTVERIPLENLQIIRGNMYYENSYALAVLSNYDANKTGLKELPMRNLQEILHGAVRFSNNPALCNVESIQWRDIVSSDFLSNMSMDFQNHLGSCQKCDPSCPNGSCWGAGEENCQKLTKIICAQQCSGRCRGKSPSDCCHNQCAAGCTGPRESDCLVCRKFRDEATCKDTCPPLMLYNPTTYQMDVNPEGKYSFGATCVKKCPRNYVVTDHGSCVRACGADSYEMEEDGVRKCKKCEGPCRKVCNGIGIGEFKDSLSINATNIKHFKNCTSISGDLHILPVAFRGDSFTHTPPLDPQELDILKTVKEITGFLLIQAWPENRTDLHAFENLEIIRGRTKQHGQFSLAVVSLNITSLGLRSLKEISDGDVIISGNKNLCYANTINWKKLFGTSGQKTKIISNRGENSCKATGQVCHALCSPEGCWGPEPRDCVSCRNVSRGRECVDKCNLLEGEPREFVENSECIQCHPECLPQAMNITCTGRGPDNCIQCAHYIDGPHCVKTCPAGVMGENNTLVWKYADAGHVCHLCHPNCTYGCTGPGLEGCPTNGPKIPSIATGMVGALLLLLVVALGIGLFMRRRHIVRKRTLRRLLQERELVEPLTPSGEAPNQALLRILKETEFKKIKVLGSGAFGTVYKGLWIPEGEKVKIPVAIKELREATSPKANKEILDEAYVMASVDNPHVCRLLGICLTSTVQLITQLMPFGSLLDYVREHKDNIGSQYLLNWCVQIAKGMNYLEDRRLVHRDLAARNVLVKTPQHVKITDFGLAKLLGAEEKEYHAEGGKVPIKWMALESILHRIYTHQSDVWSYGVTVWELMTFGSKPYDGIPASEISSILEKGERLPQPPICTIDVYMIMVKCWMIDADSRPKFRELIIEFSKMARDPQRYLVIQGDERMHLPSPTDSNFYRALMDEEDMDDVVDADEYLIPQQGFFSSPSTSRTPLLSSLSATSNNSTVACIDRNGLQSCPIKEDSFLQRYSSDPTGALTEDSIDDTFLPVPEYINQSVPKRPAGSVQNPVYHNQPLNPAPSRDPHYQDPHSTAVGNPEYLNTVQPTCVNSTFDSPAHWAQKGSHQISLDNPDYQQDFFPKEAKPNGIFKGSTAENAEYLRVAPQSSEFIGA
Outline: as §1

RET S891A = target: T9, RET S891A (Homo sapiens, UniProt P07949, S891A)
T9 construct: purchased Thermo Fisher Scientific
T9 sequence (P07949 29-1114 S891A): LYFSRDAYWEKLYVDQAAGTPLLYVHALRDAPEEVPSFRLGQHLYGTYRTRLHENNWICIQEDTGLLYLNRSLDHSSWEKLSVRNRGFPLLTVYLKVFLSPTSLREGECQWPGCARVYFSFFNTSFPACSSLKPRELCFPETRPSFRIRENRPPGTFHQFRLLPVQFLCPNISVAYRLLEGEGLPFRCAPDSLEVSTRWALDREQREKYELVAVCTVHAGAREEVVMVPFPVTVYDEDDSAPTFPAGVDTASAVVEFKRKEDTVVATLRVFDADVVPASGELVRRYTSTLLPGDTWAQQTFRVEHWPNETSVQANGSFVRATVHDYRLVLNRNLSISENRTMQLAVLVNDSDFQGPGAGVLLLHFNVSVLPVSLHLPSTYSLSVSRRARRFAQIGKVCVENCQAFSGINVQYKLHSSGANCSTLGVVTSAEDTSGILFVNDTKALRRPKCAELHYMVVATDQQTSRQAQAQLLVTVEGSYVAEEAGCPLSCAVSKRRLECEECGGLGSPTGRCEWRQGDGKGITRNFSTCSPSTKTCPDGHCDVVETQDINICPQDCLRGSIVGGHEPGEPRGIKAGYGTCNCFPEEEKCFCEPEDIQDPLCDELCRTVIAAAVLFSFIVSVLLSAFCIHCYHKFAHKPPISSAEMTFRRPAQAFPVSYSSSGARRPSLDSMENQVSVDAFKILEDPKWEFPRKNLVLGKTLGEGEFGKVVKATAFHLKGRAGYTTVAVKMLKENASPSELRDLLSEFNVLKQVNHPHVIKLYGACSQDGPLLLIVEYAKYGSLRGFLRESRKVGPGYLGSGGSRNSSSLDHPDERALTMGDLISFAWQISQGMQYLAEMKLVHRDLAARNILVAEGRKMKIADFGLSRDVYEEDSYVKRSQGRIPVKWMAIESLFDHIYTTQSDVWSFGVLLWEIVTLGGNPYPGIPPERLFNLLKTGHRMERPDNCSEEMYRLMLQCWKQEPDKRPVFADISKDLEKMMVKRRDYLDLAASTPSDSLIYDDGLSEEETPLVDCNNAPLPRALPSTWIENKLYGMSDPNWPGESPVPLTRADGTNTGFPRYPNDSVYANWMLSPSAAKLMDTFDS
Outline: as §1

CAMK2B (CaMKII beta) = target: T10, CAMK2B (CaMKII beta) (Homo sapiens, UniProt Q13554)
T10 construct: purchased Thermo Fisher Scientific
Outline: as §1

SRPK2 = target: T11, SRPK2 (Homo sapiens, UniProt P78362)
T11 construct: purchased Thermo Fisher Scientific
T11 sequence (P78362 whole entry): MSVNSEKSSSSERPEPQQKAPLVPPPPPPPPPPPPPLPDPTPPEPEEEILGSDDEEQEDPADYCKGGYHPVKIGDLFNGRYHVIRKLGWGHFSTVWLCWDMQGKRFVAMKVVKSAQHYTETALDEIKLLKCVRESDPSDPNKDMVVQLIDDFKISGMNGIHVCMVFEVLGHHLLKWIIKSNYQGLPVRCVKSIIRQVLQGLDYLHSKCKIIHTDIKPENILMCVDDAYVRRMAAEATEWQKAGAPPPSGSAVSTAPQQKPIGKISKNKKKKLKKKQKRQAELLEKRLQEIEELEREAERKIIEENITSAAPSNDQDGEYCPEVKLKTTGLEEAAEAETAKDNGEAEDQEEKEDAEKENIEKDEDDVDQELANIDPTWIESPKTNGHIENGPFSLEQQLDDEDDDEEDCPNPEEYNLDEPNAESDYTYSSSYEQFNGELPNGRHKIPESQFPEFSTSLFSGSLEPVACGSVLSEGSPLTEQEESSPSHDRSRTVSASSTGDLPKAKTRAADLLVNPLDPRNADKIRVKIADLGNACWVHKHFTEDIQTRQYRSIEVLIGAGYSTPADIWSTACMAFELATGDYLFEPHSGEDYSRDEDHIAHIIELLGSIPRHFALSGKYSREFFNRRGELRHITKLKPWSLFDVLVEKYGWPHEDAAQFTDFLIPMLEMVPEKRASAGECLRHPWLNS
Outline: as §1

| Structure (SMILES) | inhibition at 1 µM [1] | inhibition at 10 µM [1] | inhibition at 1 µM (MATK (HYL)) | inhibition at 10 µM (MATK (HYL)) | inhibition at 1 µM (CSNK1E (CK1 epsilon)) | inhibition at 10 µM (CSNK1E (CK1 epsilon)) | inhibition at 1 µM (CSNK1D (CK1 delta)) | inhibition at 10 µM (CSNK1D (CK1 delta)) | inhibition at 1 µM (MAPK13 (p38 delta)) | inhibition at 10 µM (MAPK13 (p38 delta)) | inhibition at 1 µM (ACVR1B (ALK4)) | inhibition at 10 µM (ACVR1B (ALK4)) | inhibition at 1 µM (FYN) | inhibition at 10 µM (FYN) | inhibition at 1 µM (EGFR (ErbB1) C797S) | inhibition at 10 µM (EGFR (ErbB1) C797S) | inhibition at 1 µM (RET S891A) | inhibition at 10 µM (RET S891A) | inhibition at 1 µM (CAMK2B (CaMKII beta)) | inhibition at 10 µM (CAMK2B (CaMKII beta)) | further results |
| --- | --- | --- | --- | --- | --- | --- | --- | --- | --- | --- | --- | --- | --- | --- | --- | --- | --- | --- | --- | --- | --- |
| COc1ccc2c(c1OC)c(=O)n1c3ccc(O)cc3c3ccnc2c31 [MW01, 5-Hydroxy-10,11-dimethoxy-9H-benzo[c]indolo[3,2,1-ij][1,5]naphthyridin-9-one] | 2% | 12% | 14% | 2% | 6% | 32% | 13% | 39% | 13% | 11% | -9% | -3% | 3% | 15% | 4% | 11% | -3% | 30% | 9% | 37% | inhibition at 1 µM (SRPK2): -2%; inhibition at 10 µM (SRPK2): 0% |
| COc1ccc2cc3c(N)nn(C(=O)c4cccc(N(C)C)c4)c3nc2c1 [MW05, (3-Amino-7-methoxypyrazolo[3,4-b]quinolin-1-yl)-[3-(dimethylamino)phenyl]methanone] | 1% | 2% | 13% | 13% | 2% | 0% | -1% | -1% | 8% | 9% | 1% | -8% | 4% | 5% | 1% | -14% | -15% | -18% | 5% | 3% | inhibition at 1 µM (SRPK2): 4%; inhibition at 10 µM (SRPK2): 10% |
